From patent US20250295639A1, “METHODS FOR TREATING HEART DISEASES” (Cytokinetics, Incorporated, priority 2024, published 2025)
Several values for one entry are separate records, joined by “and”; a condition that tells them apart may be missing. Equal values may be shown once.

System: patients with symptomatic oHCM
Experiment: SEQUOIA-HCM phase 3 trial: echocardiography (LVOT gradients, cardiac structure and function)
Format: in vivo, human
Settings: for LA Volume Index / LV Ejection Fraction / LV Mass Index / LV Maximal Wall Thickness: Non-CMR Cohort N = 225 (Aficamten N = 117)
Excerpt: The following example describes a phase 3, multi-center, randomized, double-blind, placebo-controlled trial to evaluate the efficacy and safety of aficamten in adults with symptomatic hypertrophic cardiomyopathy and left ventricular outflow tract obstruction. This trial evaluated the effects of treatment with aficamten over a 24-week period on cardiopulmonary exercise capacity and health status in patients with symptomatic oHCM. This trial was intended to establish the efficacy and safety of aficamten with respect to improvements in exercise capacity and patient symptoms, as well as reduction in left ventricular outflow tract gradient (LVOT-G) in patients with oHCM.
This was a Phase 3 randomized, placebo-controlled, double-blind, multi-center trial in patients with symptomatic oHCM. Approximately 270 eligible patients were to be randomized in a 1:1 ratio to receive aficamten or placebo. Doses of 5, 10, 15, or 20 mg or matching placebo were administered in an escalating manner using echocardiography to guide dose titration. Randomization was stratified by use of beta blockers and CPET exercise modality.
The trial comprised three periods. The screening period was up to 6 weeks in duration. The double-blind placebo-controlled treatment period lasted 24 weeks. Following the final dose of aficamten, there was a 4-week safety follow-up period. Aficamten was administered orally once daily. During the initial six weeks of the treatment period, aficamten doses were individually titrated at Weeks 2, 4, and 6 using echocardiography. […] An echocardiogram was performed at each subsequent visit during the trial and the dose down-titrated if necessary. The primary endpoint of pVO2 was measured by CPET at screening and at end of treatment (Week 24). If applicable, patients continued taking background HCM medications consistent with regional clinical practice guidelines during the trial.
Echocardiography. Echocardiography was done during screening and prior to dosing on Day 1. Echocardiography was also performed 2 hours after dosing in the clinic on Weeks 2, 4, 6, 8, 12, 16, 20, 24, and 28.
Certified sonographers performed echocardiography using standard high-quality, high-fidelity machines. Whenever possible, the same sonographer performed all studies for a single patient. Echocardiograms were performed after the patient had been resting in a supine position for at least 10 minutes and in accordance with the echocardiography manual. Instructions for the performance of the Valsalva maneuver and imaging the LVOT-G were also included in the echocardiography manual.
Echocardiographic parameters measured at least included the left ventricular parameters (resting left ventricular outflow tract pressure gradient (LVOT-G), post-Valsalva LVOT-G, LVEF, LVFS, global longitudinal strain (GLS), left ventricular end diastolic diameter (LVEDD), left ventricular end diastolic volume (LVEDV), left ventricular end systolic diameter (LVESD), left ventricular end systolic volume (LVESV), left ventricular cardiac output (LVCO), LV Stroke Volume, LVOT velocity time integral (VTI), interventricular septum thickness (IVST), isovolumic contraction time (IVCT), IVRT, E/E, ratio (septal and lateral), and left atrial volume (LAV)) in addition to right heart function metrics detailed in the echocardiography protocol.
All echocardiograms (including unscheduled) were sent to the core laboratory for interpretation. On-site interpretation of LVEF and LVOT-G were used for dose escalation and reduction decisions via IWRS. The core laboratory quantification of the echocardiograms was used for all statistical analyses.
Baseline values are presented as mean±SD. Placebo corrected differences are presented as mean±95% CI and adjusted for treatment and stratification by beta-blockers and exercise mode (bicycle vs treadmill). […]

[1] = Echo Measurements, Non-CMR Cohort N = 225, vs placebo
[2] = Treatment (Week 24), listed as Aficamten

SMILES: CCc1nc(-c2ccc3c(c2)CC[C@H]3NC(=O)c2cnn(C)c2)no1 [aficamten, (R)—N-(5-(5-ethyl-1,2,4-oxadiazol-3-yl)-2,3-dihydro-1H-inden-1-yl)-1-methyl-1H-pyrazole-4-carboxamide]
- patients of the SAM-resolution group reverting to baseline mitral valve SAM after washout (50/61): 82%
- patients with complete resolution of mitral valve SAM (61/117, 24 weeks treatment): 52%
- LA Volume Index (Echo Measurements, Baseline): 40 ± 13 mL/m^2
- LV Ejection Fraction (Echo Measurements, Baseline): 74.8 ± 5.6%
- LV Mass Index (Echo Measurements, Baseline): 131 ± 33 g/m^2
- LV Maximal Wall Thickness (Echo Measurements, Baseline): 20.7 ± 3.0 mm
- LA Volume Index (Echo Measurements, Week 24): 37 ± 11 mL/m^2
- LV Ejection Fraction (Echo Measurements, Week 24): 67.8 ± 7.4%
- LV Mass Index (Echo Measurements, Week 24): 126 ± 33 g/m^2
- LV Maximal Wall Thickness (Echo Measurements, Week 24): 19.2 ± 3.2 mm
- LA Volume Index, Treatment Effect [1]: −5 mL/m^2
- LV Ejection Fraction, Treatment Effect [1]: −5.3%
- LV Mass Index, Treatment Effect [1]: −13 g/m^2
- LV Maximal Wall Thickness, Treatment Effect [1]: −1.2 mm
- Inferolateral wall: placebo-corrected treatment difference (95% CI) (Treatment (Week 24)): −0.8 (−1.3, −0.3) mm
- Interventricular septal wall: placebo-corrected treatment difference (95% CI) (Treatment (Week 24)): −1.0 (−1.6, −0.3) mm
- LA volume index: placebo-corrected treatment difference (95% CI) (Treatment (Week 24)): −3.8 ml/m2
- LA width: placebo-corrected treatment difference (95% CI) (Treatment (Week 24)): −2.7 (−3.8, −1.7) mm
- LV Fractional Shortening: placebo-corrected treatment difference (95% CI) (Treatment (Week 24)): −4 (−7, −2) %
- LV end diastolic dimension: placebo-corrected treatment difference (95% CI) (Treatment (Week 24)): −0.3 (−1.1, 0.5) mm
- LV end diastolic volume index: placebo-corrected treatment difference (95% CI) (Treatment (Week 24)): −0.2 (−1.5, 1.2) ml/m2
- LV end systolic dimension: placebo-corrected treatment difference (95% CI) (Treatment (Week 24)): +1.6 (0.7, 2.4) mm
- LV end systolic volume index: placebo-corrected treatment difference (95% CI) (Treatment (Week 24)): +1.7 ml/m2
- LV mass index: placebo-corrected treatment difference (95% CI) (Treatment (Week 24)): −12.2 (−18.0, −6.5) g/m2
- LVOT Gradient, Valsalva: placebo-corrected treatment difference (95% CI) (Treatment (Week 24)): −50 mmHg
- LVOT Gradient, rest: placebo-corrected treatment difference (95% CI) (Treatment (Week 24)): −40 mmHg
- Lateral E/e′: placebo-corrected treatment difference (95% CI) (Treatment (Week 24)): −3.9
- Lateral e′ velocity: placebo-corrected treatment difference (95% CI) (Treatment (Week 24)): +1.2 cm/s
- Max wall thickness: placebo-corrected treatment difference (95% CI) (Treatment (Week 24)): −1.2 (−1.8, −0.6) mm
- Peak A wave velocity: placebo-corrected treatment difference (95% CI) (Treatment (Week 24)): −2.4 (−6.3, 1.5) cm/s
- Peak E wave velocity: placebo-corrected treatment difference (95% CI) (Treatment (Week 24)): −7.5 (−11.7, −3.2) cm/s
- RV s′ velocity: placebo-corrected treatment difference (95% CI) (Treatment (Week 24)): −1.4(−2.0, −0.9) cm/s
- Septal E/e′: placebo-corrected treatment difference (95% CI) (Treatment (Week 24)): −3.6
- Septal e′ velocity: placebo-corrected treatment difference (95% CI) (Treatment (Week 24)): +0.5 cm/s
- TAPSE: placebo-corrected treatment difference (95% CI) (Treatment (Week 24)): −2.1 (−3.2,−1.1) mm
- LA volume index: placebo-corrected treatment difference (95% CI) [2]: −3.8 (−5.5, −2.2) ml/m2
- LV Ejection Fraction: placebo-corrected treatment difference (95% CI) [2]: −4.8% and −5 (−6, −3) %
- LV end systolic volume index: placebo-corrected treatment difference (95% CI) [2]: +1.7 (1.0, 2.4) ml/m2
- LV global circumferential strain (absolute): placebo-corrected treatment difference (95% CI) [2]: −3.7% and −3.7 (−5.6, −1.8) %
- LVOT Gradient, Valsalva: placebo-corrected treatment difference (95% CI) [2]: −50 (−57, −44) mmHg
- LVOT Gradient, rest: placebo-corrected treatment difference (95% CI) [2]: −40 (−46, −34) mmHg
- Lateral E/e′: placebo-corrected treatment difference (95% CI) [2]: −3.9 (−5.0, −2.8)
- Lateral e′ velocity: placebo-corrected treatment difference (95% CI) [2]: 1.2 (0.7, 1.6) cm/s
- Septal E/e′: placebo-corrected treatment difference (95% CI) [2]: −3.6 (−4.8, −2.5)
- Septal e′ velocity: placebo-corrected treatment difference (95% CI) [2]: 0.5 (0.2, 0.8) cm/s
- Inferolateral wall: placebo-corrected treatment difference (95% CI) (Washout (Week 28)): −0.2 (−0.8, 0.3) mm
- Interventricular septal wall: placebo-corrected treatment difference (95% CI) (Washout (Week 28)): −0.3 (−1.0, 0.4) mm
- LA volume index: placebo-corrected treatment difference (95% CI) (Washout (Week 28)): −3.0 (−4.9, −1.0) ml/m2
- LA width: placebo-corrected treatment difference (95% CI) (Washout (Week 28)): −0.8 (−1.8, 0.3) mm
- LV Ejection Fraction: placebo-corrected treatment difference (95% CI) (Washout (Week 28)): −1 (−2, 1) %
- LV Fractional Shortening: placebo-corrected treatment difference (95% CI) (Washout (Week 28)): −1 (−3, 2) %
- LV end diastolic dimension: placebo-corrected treatment difference (95% CI) (Washout (Week 28)): −0.7 (−1.6, 0.2) mm
- LV end diastolic volume index: placebo-corrected treatment difference (95% CI) (Washout (Week 28)): −1.2 (−2.5, 0.1) ml/m2
- LV end systolic dimension: placebo-corrected treatment difference (95% CI) (Washout (Week 28)): −0.2 (−1.1, 0.8) mm
- LV end systolic volume index: placebo-corrected treatment difference (95% CI) (Washout (Week 28)): −0.1 (−0.7, 0.5) ml/m2
- LV global circumferential strain (absolute): placebo-corrected treatment difference (95% CI) (Washout (Week 28)): −0.8 (−2.5, 0.9) %
- LV global longitudinal strain (absolute): placebo-corrected treatment difference (95% CI) (Washout (Week 28)): −0.1 (−0.6, 0.5) %
- LV mass index: placebo-corrected treatment difference (95% CI) (Washout (Week 28)): −3.7 (−10.2, 2.8) g/m2
- LVOT Gradient, Valsalva: placebo-corrected treatment difference (95% CI) (Washout (Week 28)): −1 (−8, 6) mmHg
- LVOT Gradient, rest: placebo-corrected treatment difference (95% CI) (Washout (Week 28)): −1 (−6, 7) mmHg
- Lateral E/e′: placebo-corrected treatment difference (95% CI) (Washout (Week 28)): −0.2 (−1.6, 1.2)
- Lateral e′ velocity: placebo-corrected treatment difference (95% CI) (Washout (Week 28)): −0.2 (−0.6, 0.3) cm/s
- Peak A wave velocity: placebo-corrected treatment difference (95% CI) (Washout (Week 28)): 3.2 (−0.5, 6.9) cm/s
- Peak E wave velocity: placebo-corrected treatment difference (95% CI) (Washout (Week 28)): −1.6 (−5.8, 2.7) cm/s
- RV s′ velocity: placebo-corrected treatment difference (95% CI) (Washout (Week 28)): +0.3 (−0.2, 0.9) cm/s
- Septal E/e′: placebo-corrected treatment difference (95% CI) (Washout (Week 28)): −0.6 (−1.7, 0.6)
- Septal e′ velocity: placebo-corrected treatment difference (95% CI) (Washout (Week 28)): −0.0 (−0.3, 0.2) cm/s
- TAPSE: placebo-corrected treatment difference (95% CI) (Washout (Week 28)): +0.8 (−0.3, 1.9) mm
- rest LV outflow tract gradient on treatment (end of treatment period, from 55±27 at baseline): 20±17 mmHg
- Valsalva LV outflow tract gradient on treatment (end of treatment period, from 83±32 at baseline): 35±25 mmHg
- reduction of Valsalva LVOT gradient compared to baseline (week 2): 25%
- reduction of rest LVOT gradient compared to baseline (week 2): 31%
